The values below come from article PMC6440969, “Functional and structural similarities of D7 proteins in the independently-evolved salivary secretions of sand flies and mosquitoes” (Scientific Reports, 2019).

One assay deals with T1, P. duboscqi ABI15936 (Phlebotomus duboscqi, UniProt Q06KA2).
T1 construct: made in house; host or cells: E. coli BL21 (DE3) pLysS
In words: biochemical. The format is binding. The settings on record: for affinities (1/Ka): range printed for both proteins (AGE83092 and ABI15936) together; for binding of biogenic amines: ITC (Fig. S1). The protocol:
(§1) For cysteinyl leukotriene experiments, the calorimeter cell was filled with P. papatasi D7 protein AGE83092 (A–C) or P. duboscqi ABI15936 (E–G) at 2 μM in Tris-buffered saline. The syringe contained 20 μM LTC4 (A,E), LTD4 (B,F) and LTE4 (C,G) in the same buffer. Injections (10 µL) were spaced at 300 s intervals. […] The syringe concentration was 50 µM AGE83092 and 100 µM for ABI15936. Heats were recorded on a VP-ITC MicroCalorimeter and data were fit using a single binding site model on the MicroCal software package (Origin 7) for calculation of thermodynamic parameters. Titration curves are representative of at least 3 measurements.
Figure 7 Binding pocket interactions in ABI15936. (A) Stereoview of bound Triton X-100 with weighted omit electron density (Fo-Fc) contoured at 3 σ covering the ligand. Carbon atoms are colored green and oxygen atoms are colored red (B). […] In the protein, carbon is colored light grey, oxygen is colored red and nitrogen is colored blue. […] The refined position is shown in green and the rotated position in white.
(§2) Proteins were diluted in 20 mM tris pH 7.4, 150 mM NaCl and degassed. […] These were sonicated for 10 minutes in a water bath sonicator and degassed before use. Biogenic amines were dissolved in the same buffer and degassed. Heats were measured with a MicroCal VP-ITC calorimeter (Malvern, United Kingdom) using 10 μl ligand injections over periods of 20 seconds with 300 seconds spacing the injections. The measured heats were integrated and fit to a single-site binding model using the MicroCal Origin software.

The target in assay [1] is T2, P. papatasi D7 protein AGE83092 (Phlebotomus papatasi, UniProt M1JMQ7).
T2 construct: made in house; host or cells: E. coli BL21 (DE3) pLysS
In words: biochemical. Format: binding. As for the experimental part: as §1, §2

For another assay, the system named is AnStD7L1. The settings on record: cited from earlier work.
In another assay the test system is AeD7. Also noted: method as in PMID 19234127, PMID 21152418. The settings on record: cited from earlier work.
Where [2] appears, read: ITC, single binding site model, Tris-buffered saline, protein 2 μM (10 µM for U46619), protein prepared with Triton X-100.
Where [3] appears, read: ITC, single binding site model, protein prepared with Triton X-100.
[4] abbreviates: ITC, protein prepared without Triton X-100.

Where two headings read alike, the source gives them in different places.

T2 sequence (M1JMQ7 20-254 limits assumed): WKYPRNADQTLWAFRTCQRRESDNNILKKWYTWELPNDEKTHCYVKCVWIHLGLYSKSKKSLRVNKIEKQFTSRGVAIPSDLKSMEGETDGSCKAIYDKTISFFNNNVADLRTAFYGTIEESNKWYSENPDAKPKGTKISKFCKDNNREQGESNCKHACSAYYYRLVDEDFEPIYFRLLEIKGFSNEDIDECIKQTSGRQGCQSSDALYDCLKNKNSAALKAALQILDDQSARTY
T1 sequence (Q06KA2 20-249 limits assumed): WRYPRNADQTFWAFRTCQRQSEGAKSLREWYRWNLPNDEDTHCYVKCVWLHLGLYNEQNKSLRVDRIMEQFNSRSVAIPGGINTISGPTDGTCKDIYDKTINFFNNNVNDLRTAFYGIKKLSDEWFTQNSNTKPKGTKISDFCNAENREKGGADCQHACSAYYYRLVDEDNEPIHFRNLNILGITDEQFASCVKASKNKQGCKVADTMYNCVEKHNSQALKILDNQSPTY

As to `CCCCC/C=C\C\C=C/C=C/C=C/[C@@H](SC[C@H](NC(=O)CC[C@H](N)C(=O)O)C(=O)NCC(=O)O)[C@@H](O)CCCC(=O)O` [LTC4], the figures for the Ka (at P. duboscqi ABI15936 (setting [2]); on P. duboscqi ABI15936 (setting [4]); in assay [1]) were 3.1e+08 M⁻¹, 2.2e+08 M⁻¹ and 1.7e+08 M⁻¹, respectively. Also, the ΔH was -8.6 kcal/mol on P. duboscqi ABI15936 (setting [3]); -10.0 kcal/mol on P. duboscqi ABI15936 (setting [4]); -10.3 kcal/mol in assay [1] (ITC, single binding site model). Besides, the “affinities (1/Ka)” value (on P. duboscqi ABI15936 (ITC); in assay [1]) was 2 to 6 nM throughout.
As to `CCCCC/C=C\C\C=C/C=C/C=C/[C@@H](SC[C@H](N)C(=O)NCC(=O)O)[C@@H](O)CCCC(=O)O` [LTD4], the ΔH at P. duboscqi ABI15936 (setting [3]) is -8.9 kcal/mol; in assay [1] (ITC, single binding site model), -10.2 kcal/mol. Also, the Kd on P. duboscqi ABI15936 (Ka) is 4.17 nM; on P. duboscqi ABI15936 (affinities (1/Ka)), 2 to 6 nM; in assay [1] (Ka) it was 1.75 nM; in assay [1] (affinities (1/Ka)) it was 2 to 6 nM.
Regarding `CCCCC/C=C\C\C=C/C=C/C=C/[C@@H](SC[C@H](N)C(=O)O)[C@@H](O)CCCC(=O)O` [LTE4], the Ka was 3.4e+07 M⁻¹ on P. duboscqi ABI15936 (setting [2]) and 6.3e+07 M⁻¹ in assay [1]. For the same molecule, the ΔH at P. duboscqi ABI15936 (setting [3]) was -7.0 kcal/mol; in assay [1] (ITC, single binding site model) it was -11.3 kcal/mol. In addition, the “affinities (1/Ka)” value on P. duboscqi ABI15936 (ITC) lay in the range of 16 to 29 nM.
Take `CCCCC[C@H](O)/C=C/[C@@H]1[C@@H](C/C=C\CCCC(=O)O)[C@H]2CO[C@@H]1C2` [U46619]: the “binding to AnStD7L1” value in the assay on AnStD7L1 was “bound”. Also, the “affinity for AeD7” value in the assay with AeD7 is “no affinity”. Besides, the results for the Ka (at P. duboscqi ABI15936 (setting [2]); in assay [1]) were 780000 M⁻¹ and 1.33e+06 M⁻¹, respectively. Also, the ΔH at P. duboscqi ABI15936 (setting [3]) was -11.5 kcal/mol; in assay [1], -8.5 kcal/mol. In addition, the Kd at P. duboscqi ABI15936 (ITC, read-out: affinity constant) is approximately 1300 nM; in assay [1] (read-out: affinity constant), approximately 750 nM.
Take `NCCc1c[nH]cn1` [histamine]: the “binding of biogenic amines” value (at P. duboscqi ABI15936; in assay [1]) was “did not bind” in each case.
For `NCCc1c[nH]c2ccc(O)cc12` [serotonin], the “binding of biogenic amines” value (on P. duboscqi ABI15936; in assay [1] (ITC (Fig. S1))) was “did not bind” throughout.
